PubChem BioAssay AID248 (DTP/NCI, 2004)
Where “and” joins values, the source holds several entries; their conditions need not be identical. Identical values can stand only once. Inconclusive results and toxic doses are left out.

System: L1210 leukemia ip in BDF1 mice, survival T/C
Experiment: NCI In Vivo Anticancer Drug Screen. Data for tumor model L1210 Leukemia (intraperitoneal) in B6D2F1 (BDF1) mice
Details: endpoint: mean survival time, higher = longer survival
Outline: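 Each compound was tested against a transplantable tumor grown in mice. The endpoint was survival, with treated animals benchmarked against vehicle controls as a simple ratio.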

[1] = dose: 100.0 mg/kg/injection, schedule: Q01DX009 (ip), vehicle: Klucel (hydroxypropylcellulose) (HPC)
[2] = dose: 100.0 mg/kg/injection, schedule: Q04DX003 (ip), vehicle: Klucel (hydroxypropylcellulose) (HPC)
[3] = dose: 200.0 mg/kg/injection, schedule: Q01DX009 (ip), vehicle: Klucel (hydroxypropylcellulose) (HPC)
[4] = dose: 200.0 mg/kg/injection, schedule: Q04DX003 (ip), vehicle: Klucel (hydroxypropylcellulose) (HPC)
[5] = dose: 400.0 mg/kg/injection, schedule: Q01DX009 (ip), vehicle: Klucel (hydroxypropylcellulose) (HPC)
[6] = dose: 400.0 mg/kg/injection, schedule: Q04DX003 (ip), vehicle: Klucel (hydroxypropylcellulose) (HPC)
[7] = dose: 100.0 mg/kg/injection, schedule: Q04DX003 (ip), vehicle: saline
[8] = dose: 100.0 mg/kg/injection, schedule: Q01DX001 (ip), vehicle: Klucel (hydroxypropylcellulose) (HPC)
[9] = dose: 200.0 mg/kg/injection, schedule: Q01DX001 (ip), vehicle: Klucel (hydroxypropylcellulose) (HPC)
[10] = dose: 200.0 mg/kg/injection, schedule: Q01DX009 (ip), vehicle: saline with Tween-80
[11] = dose: 100.0 mg/kg/injection, schedule: Q01DX001 (ip), vehicle: saline
[12] = dose: 200.0 mg/kg/injection, schedule: Q01DX001 (ip), vehicle: saline
[13] = dose: 400.0 mg/kg/injection, schedule: Q01DX001 (ip), vehicle: saline

## CC(C)OP(=O)(NC12CC3CC(CC(C3)C1)C2)OC(C)C
[1]
  T/C: 103 % of control
[2]
  T/C: 95 % of control
[3]
  T/C: 100 % of control
[4]
  T/C: 96 % of control
[5]
  T/C: 90 % of control
[6]
  T/C: 100 % of control

## CC1SC(N)=NC1=O (stereo not drawn)
[1]
  T/C: 94 % of control
[7]
  T/C: 108 % of control
[3]
  T/C: 100 % of control
dose: 200.0 mg/kg/injection, schedule: Q04DX003 (ip), vehicle: saline
  T/C: 103 % of control
[5]
  T/C: 100 % of control
dose: 400.0 mg/kg/injection, schedule: Q04DX003 (ip), vehicle: saline
  T/C: 93 % of control

## O=C1CC(c2ccc(O)cc2)CC(=O)C1C(C1CC=CCC1)N(CCCl)CCCl (stereo not drawn)
[1]
  T/C: 105 % of control and 104 % of control
[2]
  T/C: 103 % of control
[3]
  T/C: 105 % of control and 100 % of control
[4]
  T/C: 106 % of control and 104 % of control
[5]
  T/C: 110 % of control and 100 % of control
[6]
  T/C: 110 % of control and 101 % of control

## CCOC(=O)C1C(=O)CC(=O)C(C(=O)OCC)C1c1ccc(OC)c(OC)c1OC (stereo not drawn)
dose: 100.0 mg/kg/injection, schedule: Q04DX002 (ip), vehicle: Klucel (hydroxypropylcellulose) (HPC)
  T/C: 103 % of control
dose: 200.0 mg/kg/injection, schedule: Q04DX002 (ip), vehicle: Klucel (hydroxypropylcellulose) (HPC)
  T/C: 101 % of control
dose: 400.0 mg/kg/injection, schedule: Q04DX002 (ip), vehicle: Klucel (hydroxypropylcellulose) (HPC)
  T/C: 113 % of control

## CCSc1ccc2c(c1)N(CCCN1CCN(C)CC1)c1ccccc1S2
dose: 3.12 mg/kg/injection, schedule: Q01DX009 (ip), vehicle: saline
  T/C: 110 % of control
dose: 6.25 mg/kg/injection, schedule: Q01DX009 (ip), vehicle: saline
  T/C: 107 % of control
dose: 6.25 mg/kg/injection, schedule: Q04DX003 (ip), vehicle: saline
  T/C: 93 % of control
dose: 12.5 mg/kg/injection, schedule: Q01DX009 (ip), vehicle: saline
  T/C: 100 % of control
dose: 12.5 mg/kg/injection, schedule: Q04DX003 (ip), vehicle: saline
  T/C: 100 % of control and 101 % of control
dose: 25.0 mg/kg/injection, schedule: Q01DX009 (ip), vehicle: saline
  T/C: 113 % of control
dose: 25.0 mg/kg/injection, schedule: Q04DX003 (ip), vehicle: saline
  T/C: 96 % of control and 97 % of control and 103 % of control
dose: 50.0 mg/kg/injection, schedule: Q01DX009 (ip), vehicle: saline
  T/C: 98 % of control
dose: 50.0 mg/kg/injection, schedule: Q04DX003 (ip), vehicle: saline
  T/C: 100 % of control and 110 % of control
[7]
  T/C: 114 % of control and 104 % of control and 110 % of control

## O=C(O)C12CC=CCC1(C(=O)O)CC=CC2 (stereo not drawn)
dose: 50.0 mg/kg/injection, schedule: Q01DX001 (ip), vehicle: carboxymethylcellulose (CMC)
  T/C: 96 % of control
dose: 100.0 mg/kg/injection, schedule: Q01DX001 (ip), vehicle: carboxymethylcellulose (CMC)
  T/C: 98 % of control
dose: 200.0 mg/kg/injection, schedule: Q01DX001 (ip), vehicle: carboxymethylcellulose (CMC)
  T/C: 102 % of control
dose: 400.0 mg/kg/injection, schedule: Q01DX001 (ip), vehicle: carboxymethylcellulose (CMC)
  T/C: 98 % of control

## O=c1c2ccccc2[nH]c(=S)n1C1CCCCC1
[1]
  T/C: 99 % of control
[2]
  T/C: 90 % of control
[3]
  T/C: 103 % of control
[4]
  T/C: 101 % of control
[5]
  T/C: 98 % of control
[6]
  T/C: 100 % of control

## CC(C)(C)CCCC1C(=O)N(c2ccccc2)N(c2ccccc2)C1=O
dose: 50.0 mg/kg/injection, schedule: Q01DX009 (ip), vehicle: Klucel (hydroxypropylcellulose) (HPC)
  T/C: 110 % of control
[1]
  T/C: 110 % of control
[2]
  T/C: 106 % of control
[3]
  T/C: 112 % of control
[4]
  T/C: 96 % of control
[6]
  T/C: 101 % of control

## CCOC(=O)/C=C/c1nc(N)[nH]c(=O)c1CCCCc1ccccc1
dose: 50.0 mg/kg/injection, schedule: Q01DX001 (ip), vehicle: Klucel (hydroxypropylcellulose) (HPC)
  T/C: 122 % of control
[8]
  T/C: 119 % of control
[9]
  T/C: 111 % of control

## CC(=O)Nc1ccc(C=NCCN=Cc2ccc(NC(C)=O)cc2)cc1
[2]
  T/C: 97 % of control
[4]
  T/C: 88 % of control
[6]
  T/C: 88 % of control

## CC(=O)Nn1cnc2c(=S)nc[nH]c21
dose: 20.0 mg/kg/injection, schedule: Q01DX009 (ip), vehicle: saline with Tween-80
  T/C: 108 % of control
dose: 100.0 mg/kg/injection, schedule: Q01DX001 (ip), vehicle: saline with Tween-80
  T/C: 101 % of control
dose: 177.0 mg/kg/injection, schedule: Q01DX001 (ip), vehicle: saline with Tween-80
  T/C: 106 % of control
dose: 200.0 mg/kg/injection, schedule: Q01DX001 (ip), vehicle: saline with Tween-80
  T/C: 110 % of control
[10]
  T/C: 93 % of control
dose: 266.0 mg/kg/injection, schedule: Q01DX001 (ip), vehicle: saline with Tween-80
  T/C: 154 % of control
dose: 400.0 mg/kg/injection, schedule: Q01DX001 (ip), vehicle: saline with Tween-80
  T/C: 118 % of control

## COC(=O)/C=C(\C(=O)OC)n1ccccc1=O
dose: 5.0 mg/kg/injection, schedule: Q01DX001 (ip), vehicle: saline
  T/C: 101 % of control
dose: 10.0 mg/kg/injection, schedule: Q01DX001 (ip), vehicle: saline
  T/C: 98 % of control
dose: 20.0 mg/kg/injection, schedule: Q01DX001 (ip), vehicle: saline
  T/C: 95 % of control
dose: 40.0 mg/kg/injection, schedule: Q01DX001 (ip), vehicle: saline
  T/C: 102 % of control

## O=C(N/N=C/c1cccnc1)C(O)C(O)C(O)C(O)CO (stereo not drawn)
[11]
  T/C: 100 % of control
[12]
  T/C: 103 % of control
[13]
  T/C: 93 % of control

## CCCNP(=S)(NCCC)NCCC
dose: 50.0 mg/kg/injection, schedule: Q01DX001 (ip), vehicle: other
  T/C: 96 % of control
dose: 100.0 mg/kg/injection, schedule: Q01DX001 (ip), vehicle: other
  T/C: 100 % of control
dose: 200.0 mg/kg/injection, schedule: Q01DX001 (ip), vehicle: other
  T/C: 105 % of control
dose: 400.0 mg/kg/injection, schedule: Q01DX001 (ip), vehicle: other
  T/C: 100 % of control

## CCCCCCCCCCCCCCOC(=O)Cl
[1]
  T/C: 101 % of control
[3]
  T/C: 97 % of control
[5]
  T/C: 86 % of control

## COc1ccc(Cl)cc1N=Cc1cccc([N+](=O)[O-])c1
[1]
  T/C: 102 % of control
[3]
  T/C: 94 % of control
[5]
  T/C: 94 % of control

## O=C(Nc1coc2ccc(Cl)cc12)C1CC1
dose: 100.0 mg/kg/injection, schedule: Q01DX009 (ip), vehicle: saline with Tween-80
  T/C: 86 % of control
[10]
  T/C: 99 % of control

## Oc1ccc(O)c2c1C1c3ccccc3C2c2ccccc21
[11]
  T/C: 86 % of control
[12]
  T/C: 108 % of control

## CCOC(=O)CCC(N)C(=O)OCC (stereo not drawn)
[11]
  T/C: 95 % of control and 91 % of control
dose: 100.0 mg/kg/injection, schedule: Q01DX009 (ip), vehicle: saline
  T/C: 96 % of control
[12]
  T/C: 91 % of control
dose: 200.0 mg/kg/injection, schedule: Q01DX009 (ip), vehicle: saline
  T/C: 88 % of control
[13]
  T/C: 98 % of control and 86 % of control

## O=C(O)c1c[nH]c2cc(Cl)ccc2c1=O
[8]
  T/C: 90 % of control
dose: 100.0 mg/kg/injection, schedule: Q04DX003 (ip), vehicle: saline with Tween-80
  T/C: 100 % of control
[9]
  T/C: 101 % of control
dose: 200.0 mg/kg/injection, schedule: Q04DX003 (ip), vehicle: saline with Tween-80
  T/C: 101 % of control and 105 % of control
dose: 400.0 mg/kg/injection, schedule: Q01DX001 (ip), vehicle: Klucel (hydroxypropylcellulose) (HPC)
  T/C: 97 % of control
dose: 400.0 mg/kg/injection, schedule: Q04DX003 (ip), vehicle: saline with Tween-80
  T/C: 100 % of control and 90 % of control

## CC(=O)O[C@]1(C(C)=O)CC[C@H]2[C@@H]3C[C@H](F)C4=CC(=O)CC[C@]4(C)[C@H]3CC[C@@]21C
[1]
  T/C: 98 % of control
dose: 100.0 mg/kg/injection, schedule: Q04DX003 (ip), vehicle: other
  T/C: 93 % of control
[3]
  T/C: 97 % of control
dose: 200.0 mg/kg/injection, schedule: Q04DX003 (ip), vehicle: other
  T/C: 98 % of control
[5]
  T/C: 101 % of control
dose: 400.0 mg/kg/injection, schedule: Q04DX003 (ip), vehicle: other
  T/C: 100 % of control
